Publication PMC6272448, “Synthesis, ^18F-Radiolabelling and Biological Characterization of Novel Fluoroalkylated Triazine Derivatives for in Vivo Imaging of Phosphodiesterase 2A in Brain via Positron Emission Tomography” (Molecules, 2015)
Where two headings read alike, the source gives them in different places.

Columns and labels:
hPDE2A = details: cited from earlier work
hPDE10A = test system: hPDE10A; design: method as in PMID 24189054, PMID 23651455; details: cited from earlier work
[1] = design: method as in PMID 24189054, PMID 23651455; details: monkeys, striatum; cited from earlier work
[2] = design: method as in PMID 24189054; details: rats, cited from earlier work
human recombinant PDE10A = human recombinant PDE10A (Homo sapiens, UniProt Q9Y233); assay: enzyme assay, inhibitory potency for human recombinant PDE10A; type: biochemical; details: enzyme assay (BioCrea), read-out: IC50 hPDE10A
Description: (§1) The IC50 values obtained by this assay represent relative measures of the respective target affinity of the compounds.

human recombinant PDE2A = human recombinant PDE2A (Homo sapiens, UniProt O00408); assay: enzyme assay, inhibitory potency for human recombinant PDE2A; type: biochemical; details: for Selectivity Ratio PDE10A/PDE2A: IC50 hPDE10A / IC50 hPDE2A; for IC50: human recombinant PDE2A, enzyme assay (BioCrea), read-out: IC50 hPDE2A
human recombinant PDE2A, sequence (O00408 whole entry): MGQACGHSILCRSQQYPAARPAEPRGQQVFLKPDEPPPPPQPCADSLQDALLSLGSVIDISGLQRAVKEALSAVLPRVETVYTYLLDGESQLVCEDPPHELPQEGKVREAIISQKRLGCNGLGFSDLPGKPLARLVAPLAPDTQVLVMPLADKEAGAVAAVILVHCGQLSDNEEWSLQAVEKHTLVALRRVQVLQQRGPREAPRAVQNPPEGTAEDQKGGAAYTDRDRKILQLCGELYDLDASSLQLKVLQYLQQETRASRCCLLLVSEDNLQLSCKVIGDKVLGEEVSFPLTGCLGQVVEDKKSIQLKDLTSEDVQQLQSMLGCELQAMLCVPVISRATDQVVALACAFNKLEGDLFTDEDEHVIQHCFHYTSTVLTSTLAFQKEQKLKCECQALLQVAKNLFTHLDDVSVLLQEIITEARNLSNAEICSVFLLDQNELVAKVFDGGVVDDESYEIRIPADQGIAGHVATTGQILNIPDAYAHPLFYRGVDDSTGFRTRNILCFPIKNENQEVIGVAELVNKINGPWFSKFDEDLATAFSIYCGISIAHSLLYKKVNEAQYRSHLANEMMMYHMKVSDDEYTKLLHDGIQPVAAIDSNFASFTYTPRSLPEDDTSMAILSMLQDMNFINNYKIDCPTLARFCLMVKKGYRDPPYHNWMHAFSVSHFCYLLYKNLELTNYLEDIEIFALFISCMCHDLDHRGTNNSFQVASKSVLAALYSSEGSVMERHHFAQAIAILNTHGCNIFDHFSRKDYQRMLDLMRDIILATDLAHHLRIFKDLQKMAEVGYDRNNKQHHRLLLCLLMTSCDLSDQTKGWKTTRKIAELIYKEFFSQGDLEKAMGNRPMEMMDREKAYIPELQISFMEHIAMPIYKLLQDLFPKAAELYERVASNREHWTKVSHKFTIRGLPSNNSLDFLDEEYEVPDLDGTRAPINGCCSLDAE
Description: as §1

human recombinant PDE10A, sequence (Q9Y233 whole entry): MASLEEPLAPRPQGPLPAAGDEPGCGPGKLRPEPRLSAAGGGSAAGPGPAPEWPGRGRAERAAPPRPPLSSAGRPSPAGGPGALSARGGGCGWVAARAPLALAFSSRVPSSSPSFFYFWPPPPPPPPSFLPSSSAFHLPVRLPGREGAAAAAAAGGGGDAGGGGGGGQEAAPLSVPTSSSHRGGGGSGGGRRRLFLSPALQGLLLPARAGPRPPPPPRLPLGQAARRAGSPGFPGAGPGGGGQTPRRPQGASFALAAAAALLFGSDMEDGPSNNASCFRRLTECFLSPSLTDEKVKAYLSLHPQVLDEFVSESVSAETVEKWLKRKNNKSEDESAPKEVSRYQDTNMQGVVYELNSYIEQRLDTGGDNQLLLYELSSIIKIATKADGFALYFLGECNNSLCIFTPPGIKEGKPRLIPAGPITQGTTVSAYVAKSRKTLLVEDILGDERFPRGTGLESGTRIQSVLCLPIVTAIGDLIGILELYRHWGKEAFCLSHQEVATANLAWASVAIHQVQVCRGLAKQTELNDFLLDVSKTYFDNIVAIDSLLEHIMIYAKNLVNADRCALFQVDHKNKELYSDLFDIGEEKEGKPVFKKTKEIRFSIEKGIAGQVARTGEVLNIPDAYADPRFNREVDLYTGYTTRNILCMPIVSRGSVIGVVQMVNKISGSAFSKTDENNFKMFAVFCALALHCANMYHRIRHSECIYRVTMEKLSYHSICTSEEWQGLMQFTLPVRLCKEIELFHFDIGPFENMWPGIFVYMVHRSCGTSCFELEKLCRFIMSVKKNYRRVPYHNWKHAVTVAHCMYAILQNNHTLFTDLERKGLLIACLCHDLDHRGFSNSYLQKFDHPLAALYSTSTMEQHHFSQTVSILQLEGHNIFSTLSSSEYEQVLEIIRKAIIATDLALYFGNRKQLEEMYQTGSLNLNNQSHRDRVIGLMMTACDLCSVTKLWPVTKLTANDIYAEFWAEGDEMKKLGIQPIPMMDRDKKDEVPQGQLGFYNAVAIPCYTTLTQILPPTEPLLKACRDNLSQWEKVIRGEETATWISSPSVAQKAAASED

SMILES: Cc1nc(-c2cnn(C)c2-c2ccc(C(F)(F)F)cc2)c2c(N3CC([18F])C3)ncnn12 [[^18F]PF-05270430]
- IC50 (hPDE2A; Pfizer PET ligand): 0.5 nM
- IC50 (hPDE10A): 3000 nM
- uptake in PET studies [1]: rapid and high uptake

SMILES: COc1ccc(Cc2nn3c(C(CCCc4ccccc4)C(C)O)nc(C)c3c(=O)[nH]2)cc1OC (centres unmarked) [BAY 60-7550]
- IC50 (hPDE2A; Figure 1): ~5 nM

SMILES: Cc1nc2ccc(CN3CCOCC3)cc2n2c(-c3c([18F])cccc3Cl)nnc12 [[^18F]B-23]
- radiometabolites detected in the brain ([2]; at 2 min p.i.): 4 % of total activity
- radiometabolites detected in the brain ([2]; at 10 min p.i.): 10 % of total activity
- regional accumulation in microPET imaging [2]: highest accumulation of [^18F]B-23 has been observed in the striatum

SMILES: COc1ccc2nnc3c(C)nc(-c4cc(OCCF)ccc4F)n3c2n1 [TA2, 9-(2-Fluoro-5-(2-fluoroethoxy)phenyl)-2-methoxy-7-methylimidazo[5,1-c]pyrido[2,3-e] [1,2,4]triazine]
- IC50 (human recombinant PDE10A): 77 nM
- Selectivity Ratio PDE10A/PDE2A (human recombinant PDE2A): 7.4
- IC50 (human recombinant PDE2A): 10.4 nM

SMILES: COc1ccc2nnc3c(C)nc(-c4cc(OCCCF)ccc4F)n3c2n1 [TA3]
- IC50 (human recombinant PDE10A): 318 nM
- Selectivity Ratio PDE10A/PDE2A (human recombinant PDE2A): 27.9
- IC50 (human recombinant PDE2A): 11.4 nM

SMILES: CCCCCCC(C(C)O)n1cnc2c(N)ncnc21 (stereo not drawn) [EHNA, erythro-9-(2-hydroxy-3-nonyl)-adenine]
- IC50 (hPDE2A; Figure 1): ~1000 nM

SMILES: COc1ccc2nnc3c(C)nc(-c4cc(OCCCCF)ccc4F)n3c2n1 [TA4]
- IC50 (human recombinant PDE10A): 913 nM
- Selectivity Ratio PDE10A/PDE2A (human recombinant PDE2A): 125.1
- IC50 (human recombinant PDE2A): 7.3 nM
